“Also recorded” adds a separate entry of the source.
Legend:
VS t(11; 14) cell lines = experiment: Rescue of FAC mediated cell death in VS t(11;14) cell lines; assay type: cell-based; details: in the presence and absence of venetoclax
Experimental: Intracellular iron overload, ROS mediated lipid peroxidation, and loss of GSH/GPX4 mediated antioxidant defenses are all features of ferroptosis. Experiments were performed to determine whether FAC supplementation in VS t(11; 14) MM promotes cell death via ferroptosis. VS t(11; 14) cell lines were treated with a ferrostatin (Fn-1), a synthetic antioxidant that acts via a reductive mechanism to prevent damage to membrane lipids and thereby, inhibits cell death. Inhibiting ferroptosis was able to fully rescue the cell death induced by FAC both in the presence and absence of venetoclax (FIG. 8B). Boc-D-FMK is a caspase inhibitor that inhibits apoptosis.

[1] = system: venetoclax sensitive (VS) multiple myeloma (MM) cell lines; experiment: Hemin/5-ALA supplementation and Ven sensitivity in VS MM cell lines, Annexin V/DAPI flow cytometry; assay type: cell-based; details: 50 μM Hemin/5-ALA pre-treatment 24 hours, then Ven 24 hrs
Experimental: Cell death/viability was assessed by Annexin V/DAPI flow cytometric staining.
To test the necessity for reduced heme synthesis for Ven sensitivity in t(11; 14) MM, Ven treated cells were supplemented with either the heme synthesis precursor 5-ALA or hemin (oxidized heme and active ingredient of clinically approved Panhematin™).

MEK-ERK-mTORC1 signaling = MEK-ERK-mTORC1 signaling in whole cell lysates of VS MM treated with hemin; assay type: cell-based; details: 50 μM hemin and/or 0.05 μM Ven for 18 h
Experimental: Whole cell lysates of indicated lines were treated with 50 μM hemin and/or 0.05 μM Ven for 18 h. Indicated VS cells were treated with 50 µM hemin and 0.05 μM Ven and RAF, MEK, or ERK-inhibitors. Cell death/viability was evaluated by Annexin V/DAPI flow cytometric staining.

[2] = system: venetoclax sensitive acute myeloid leukemia (AML) cell lines; experiment: Hemin supplementation and venetoclax sensitivity in AML cell lines; assay type: cell-based
[3] = system: VS t(11; 14) MM cell lines; experiment: Growth/viability of VS t(11;14) MM cell lines under iron chelation or supplementation (CellTiter-Glo 3D); assay type: cell-based; details: iron chelation with DFO or supplementation with FAC (500 μM FAC up to 96 h, FIG. 7A)
Experimental: Cells were treated with 500 μM FAC up to 96 h and assessed for viability using CellTiter-Glo® 3D Cell Viability Assay.
Iron is a cofactor for the maintenance of ETC activity. The impact of modulating iron levels either by chelation with deferoxamine (DFO) or supplementation with ferric ammonium citrate (FAC) was assessed in a panel of VS t(11; 14) and VR non t(11; 14) MM cell lines.

[4] = system: reactive oxygen species (ROS) in VS t(11; 14) MM; details: FAC treated VS t(11;14) MM
Source text: (§1) Free or excess intracellular iron is a potent inducer of reactive oxygen species (ROS) and oxidative stress.

[5] = system: iron homeostasis-related protein in VS t(11; 14) cell lines
Experimental: FIG. 8B show data on the expression of iron homeostasis-related protein in whole cell lysates supplemented with 500 μM FAC for 72 h in indicated cell lines by immunoblotting using actin as a loading control. Indicated cell lines were treated with a ferroptotic inhibitor, ferrostatin (Fn-1).
as §1

t(11; 14) patient sample = details: FAC 250 μM and 500 μM, venetoclax 0.001, 0.005 and 0.01 μM, FIG. 7C

## COC(=O)CC(NC(=O)OC(C)(C)C)C(=O)CF [Boc-D-FMK]
VS t(11; 14) cell lines
  rescue of cell death induced by FAC: not able to rescue

## CCOC(=O)c1ccc(NC2CCCCC2)c(N)c1 [ferrostatin]
VS t(11; 14) cell lines
  rescue of cell death induced by FAC: sufficient to mitigate; also recorded: fully rescue

## C=CC1=C(C)c2cc3[n-]c(cc4[n-]c(cc5nc(cc1n2)C(C)=C5C=C)c(C)c4CCC(=O)O)c(CCC(=O)O)c3C.[Fe+2] [hemin, [7,12-diethenyl-3,8,13,17-tetramethyl-21H,23H-porphine-2,18-dipropanoato(2-)-N21,N22,N23,N24] iron]
[1]
  reversal (rescue) of Ven sensitivity: significantly reversed; also recorded: reverses
MEK-ERK-mTORC1 signaling
  MEK-ERK-mTORC1 signaling: restores
[2]
  reversal of venetoclax sensitivity: reverses

## ferric ammonium citrate [FAC]
[3]
  effect on growth/proliferation of VS cell lines: specifically inhibit the proliferation; also recorded: growth suppressive effect
[4]
  cytosolic ROS levels: not in cytosolic ROS levels
[4]; 48 h
  mitochondrial ROS: significant elevation
[5]; FAC treatment
  cystine-glutamate antiporter SLC7A11 expression: not altered
  iron importer TFR1 expression: reduction
  iron storage protein ferritin expression: increase
[5]; all VS t(11;14) cell lines, 500 μM FAC for 72 h
  glutathione peroxidase 4 (GPX4) protein expression: consistent reduction
t(11; 14) patient sample
  sensitivity to venetoclax with iron supplementation: A similar response

Reference: US20260232692A1, “Methods Of Treating Cancer Using BCL-2 Inhibitors With Iron And Heme Supplementation Therapies” (Emory University, priority 2023, published 2026)
